Measurements from US10774051B2, “6-membered heterocyclic derivatives and pharmaceutical composition comprising the same” (Shionogi & Co., Ltd., priority 2015, dated 2020).

Biological target: human P2X7 receptor (Homo sapiens, UniProt Q99572, R270H/Y155H)
Experiment: Evaluation of human P2X7 receptor inhibitory activity (Yo-Pro uptake, BzATP stimulation, FLIPR TETRA)
Format: cell-based
Conditions: 1321N1 cells stably expressing human P2X7 receptor; BzATP stimulation, Yo-Pro uptake; read-out: IC50 (antagonistic activity for the human P2X7 receptor)
Outline: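 Yo-Pro dye uptake triggered by BzATP was monitored by FLIPR in human P2X7-transfected 1321N1 cells (SNP variant) in HEPES-buffered HBSS, pH 7.4-7.5. Compound was dispensed 8 min post-stimulation, then signal read for 20 min; IC50 derived logistically from inhibition of the fluorescence range.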

| SMILES | IC50 [nM] |
| --- | --- |
| COc1ccc(Nc2nc(=O)c(F)cn2Cc2ccc(F)c(Cl)c2)c(C)n1 [Compound I-1059] | 11 |
| COc1cc(C)c(Nc2nc(=O)c(F)cn2Cc2cc(F)cc(F)c2)cc1C(C)C [Compound I-1071] | 15 |

Same assay, conditions: antagonistic activity for the human P2X7 receptor; read-out: IC50

| SMILES | IC50 [nM] |
| --- | --- |
| COc1cc(Nc2nc(=O)c(F)cn2Cc2ccc(F)c(F)c2)c(C)cc1F [Compound I-1052] | < 10 |
| Cc1ccc(N2CC3CCC2C3)cc1Nc1nc(=O)c(F)cn1Cc1cc(F)c(F)c(F)c1 (centres unmarked) [Compound I-1053] | 10 to 100 |
| Cc1cc2cc(Nc3nc(=O)c(F)cn3Cc3cc(F)c(F)c(F)c3)c(C)cc2[nH]1 [Compound I-1054] | < 10 |
| Cc1cc2cc(Nc3nc(=O)c(F)cn3Cc3ccc(F)c(Cl)c3)c(C)cc2[nH]1 [Compound I-1055] | 10 to 100 |
| Cc1cc2cc(Nc3nc(=O)c(F)cn3Cc3ccc(F)c(F)c3)c(C)cc2[nH]1 [Compound I-1056] | 10 to 100 |
| Cc1cc2cc(Nc3nc(=O)c(F)cn3Cc3cc(F)cc(F)c3)c(C)cc2[nH]1 [Compound I-1057] | 10 to 100 |
| COc1cc(Nc2nc(=O)c(F)cn2Cc2cc(F)c(F)c(F)c2)c(C)cc1F [Compound I-1058] | < 10 |
| CCOc1cc(C)c(Nc2nc(=O)c(F)cn2Cc2ccc(F)c(Cl)c2)cc1F [Compound I-1060] | 10 to 100 |
| CCOc1cc(C)c(Nc2nc(=O)c(F)cn2Cc2cc(F)cc(F)c2)cc1F [Compound I-1061] | 10 to 100 |
| CCOc1cc(C)c(Nc2nc(=O)c(F)cn2Cc2ccc(F)c(F)c2)cc1F [Compound I-1062] | 10 to 100 |
| Cc1cc(OC(F)F)ccc1Nc1nc(=O)c(F)cn1Cc1ccc(F)c(Cl)c1 [Compound I-1063] | 10 to 100 |
| Cc1cc(OC(F)F)ccc1Nc1nc(=O)c(F)cn1Cc1cc(F)cc(F)c1 [Compound I-1064] | 10 to 100 |
| Cc1cc(OC(F)F)ccc1Nc1nc(=O)c(F)cn1Cc1ccc(F)c(F)c1 [Compound I-1065] | 10 to 100 |
| COc1ccc(C)c(Nc2nc(=O)c(F)cn2Cc2ccc(F)c(Cl)c2)c1 [Compound I-1067] | < 10 |
| COc1ccc(C)c(Nc2nc(=O)c(F)cn2Cc2ccc(F)c(F)c2)c1 [Compound I-1068] | < 10 |
| COc1ccc(C)c(Nc2nc(=O)c(F)cn2Cc2cc(F)cc(F)c2)c1 [Compound I-1069] | 10 to 100 |
| COc1cc(C)c(Nc2nc(=O)c(F)cn2Cc2cc(F)c(F)c(F)c2)cc1C(C)C [Compound I-1070] | 10 to 100 |
| Cc1cc2c(cc1Nc1nc(=O)c(F)cn1Cc1ccc(F)c(F)c1)CCO2 [Compound I-1072] | < 10 |
| Cc1cc2c(cc1Nc1nc(=O)c(F)cn1Cc1ccc(F)c(Cl)c1)CCO2 [Compound I-1073] | < 10 |
| O=c1nc(Nc2cccc3c2CCN3)n(Cc2cc(F)cc(F)c2)cc1F [Compound I-1074] | 10 to 100 |
| Cc1nc2cc(Cl)c(Nc3nc(=O)c(F)cn3Cc3cc(F)cc(F)c3)cc2o1 [Compound I-1075] | < 10 |
| Cc1nc2cc(Cl)c(Nc3nc(=O)c(F)cn3Cc3ccc(F)c(F)c3)cc2o1 [Compound I-1076] | < 10 |
| Cc1nc2cc(Cl)c(Nc3nc(=O)c(F)cn3Cc3ccc(F)c(Cl)c3)cc2o1 [Compound I-1077] | < 10 |
| Cc1nc2cc(Cl)c(Nc3nc(=O)c(F)cn3Cc3cc(F)c(F)c(F)c3)cc2o1 [Compound I-1078] | < 10 |
| COC(=O)/C=C/c1ccc(C)c(Nc2nc(=O)c(OC)cn2Cc2cc(F)c(F)c(F)c2)c1 [Compound I-1079] | 10 to 100 |

| SMILES | IC50 [nM] |
| --- | --- |
| CCOC(=O)c1cn(Cc2cc(F)c(F)c(F)c2)c(Nc2ccc(OC)cc2C)nc1=O [Compound I-1080] | 10 to 100 |
| COc1cc(C)c(Nc2nc(=O)c(C(N)=O)cn2Cc2cc(F)c(F)c(F)c2)cc1C [Compound I-1081] | 10 to 100 |
| Cc1ccccc1Nc1nc(=O)c(F)cn1Cc1cc(F)c(F)c(F)c1 [Compound I-1082] | < 10 |
| COc1cc(C)c(Nc2nc(=O)c(C#N)cn2Cc2cc(F)c(F)c(F)c2)cc1C [Compound I-1083] | < 10 |
| COCc1ccc(C)c(Nc2nc(=O)c(F)cn2Cc2ccc(F)c(F)c2)c1 [Compound I-1084] | < 10 |
| COCc1ccc(C)c(Nc2nc(=O)c(F)cn2Cc2ccc(F)c(Cl)c2)c1 [Compound I-1085] | < 10 |
| COCc1ccc(C)c(Nc2nc(=O)c(F)cn2Cc2cc(F)c(F)c(F)c2)c1 [Compound I-1086] | < 10 |
| COc1cc(C)c(Nc2nc(=O)c(F)cn2Cc2cc(F)c(F)c(F)c2)cc1F [Compound I-1087] | < 10 |
| Cc1nc2cc(C)c(Nc3nc(=O)c(CCO)cn3Cc3cc(F)c(F)c(F)c3)cc2s1 [Compound I-1088] | 10 to 100 |
| Cc1cc(C)c(Nc2nc(=O)c(F)cn2Cc2ccc(F)c(Cl)c2)cc1CO [Compound I-1089] | < 10 |
| Cc1nc2[nH]ccc2cc1Nc1nc(=O)c(F)cn1Cc1ccc(F)c(F)c1 [Compound I-1090] | 10 to 100 |
| Cc1nc2[nH]ccc2cc1Nc1nc(=O)c(F)cn1Cc1ccc(F)c(Cl)c1 [Compound I-1091] | 10 to 100 |
| Cc1cc2[nH]ncc2cc1Nc1nc(=O)c(F)cn1Cc1cc(F)cc(F)c1 [Compound I-1092] | 10 to 100 |
| Cc1cc2[nH]ncc2cc1Nc1nc(=O)c(F)cn1Cc1ccc(F)c(Cl)c1 [Compound I-1093] | 10 to 100 |
| Cc1cc2[nH]ncc2cc1Nc1nc(=O)c(F)cn1Cc1cc(F)c(F)c(F)c1 [Compound I-1094] | < 10 |
| Cc1cc2[nH]ncc2cc1Nc1nc(=O)c(F)cn1Cc1ccc(F)c(F)c1 [Compound I-1095] | 10 to 100 |
| O=c1nc(Nc2cccc3cnccc23)n(Cc2cc(F)c(F)c(F)c2)cc1F [Compound I-1096] | 10 to 100 |
| COc1cn(Cc2cc(F)c(F)c(F)c2)c(Nc2ccccc2C)nc1=O [Compound I-1097] | 10 to 100 |
| Cc1ccccc1Nc1nc(=O)c(C)cn1Cc1cc(F)c(F)c(F)c1 [Compound I-1098] | 10 to 100 |
| COc1ccc(Nc2nc(=O)c(C(=O)O)cn2Cc2cc(F)c(F)c(F)c2)c(C)c1 [Compound I-1099] | 10 to 100 |
| COc1ccc(Nc2nc(=O)c(C(N)=O)cn2Cc2cc(F)c(F)c(F)c2)c(C)c1 [Compound I-1100] | 10 to 100 |
| COc1cc(C)c(Nc2nc(=O)c(F)cn2Cc2cc(F)cc(F)c2)cc1F [Compound I-1101] | 10 to 100 |
| Cc1cc(OC(F)(F)F)ccc1Nc1nc(=O)c(F)cn1Cc1cc(F)cc(F)c1 [Compound I-1102] | 10 to 100 |
| Cc1cc(OC(F)(F)F)ccc1Nc1nc(=O)c(F)cn1Cc1cc(F)c(F)c(F)c1 [Compound I-1103] | 10 to 100 |
| COc1ccc(Nc2nc(=O)c(CCO)cn2Cc2cc(F)c(F)c(F)c2)c(C)c1 [Compound I-1104] | 10 to 100 |

| SMILES | IC50 [nM] |
| --- | --- |
| O=c1nc(Nc2cccc3c(O)cccc23)n(Cc2cc(F)c(F)c(F)c2)cc1F [Compound I-1105] | < 10 |
| CN1CCc2c(cccc2Nc2nc(=O)c(F)cn2Cc2cc(F)c(F)c(F)c2)C1 [Compound I-1107] | 10 to 100 |
| CCOC(=O)c1cn(Cc2ccc(F)c(F)c2)c(Nc2cc(C)c(OC)cc2C)nc1=O [Compound I-1109] | < 10 |
| Cc1cc(C)c(Nc2nc(=O)c(F)cn2Cc2cc(F)c(F)c(F)c2)cc1CO [Compound I-1110] | < 10 |
| Cc1cc(C)c(Nc2nc(=O)c(F)cn2Cc2cc(F)cc(F)c2)cc1CO [Compound I-1111] | < 10 |
| COc1ccc(Nc2nc(=O)c(C#N)cn2Cc2cc(F)c(F)c(F)c2)c(C)c1 [Compound I-1112] | 10 to 100 |
| Cc1cc(C)c(Nc2nc(=O)c(Br)cn2Cc2cc(F)cc(F)c2)cc1C [Compound I-1113] | < 10 |
| O=c1nc(Nc2cccc3c(O)cccc23)n(Cc2cc(F)cc(F)c2)cc1F [Compound I-1114] | < 10 |
| O=c1nc(Nc2cccc3c(O)cccc23)n(Cc2ccc(F)c(F)c2)cc1F [Compound I-1115] | < 10 |
| O=c1nc(Nc2cccc3c(O)cccc23)n(Cc2ccc(F)c(Cl)c2)cc1F [Compound I-1116] | < 10 |
| COc1cc(Nc2nc(=O)c(F)cn2Cc2cc(F)c(F)c(F)c2)c(C)nc1F [Compound I-1117] | 10 to 100 |
| COc1cc(Nc2nc(=O)c(F)cn2Cc2cc(F)cc(F)c2)c(C)nc1F [Compound I-1118] | 100 to 500 |
| Cc1c(Nc2nc(=O)c(F)cn2Cc2cc(F)cc(F)c2)ccc2[nH]ccc12 [Compound I-1119] | < 10 |
| Cc1c(Nc2nc(=O)c(F)cn2Cc2cc(F)c(F)c(F)c2)ccc2[nH]ccc12 [Compound I-1120] | < 10 |
| CCOC(=O)c1cn(Cc2cc(F)c(F)c(F)c2)c(Nc2ccc(OC(F)F)cc2C)nc1=O [Compound I-1121] | 100 to 500 |
| CCOC(=O)c1cn(Cc2cc(F)c(F)c(F)c2)c(Nc2cc(OC)c(F)cc2C)nc1=O [Compound I-1122] | 10 to 100 |
| COc1ccc(C)c(Nc2nc(=O)c(C#N)cn2Cc2cc(F)cc(F)c2)c1 [Compound I-1123] | 100 to 500 |
| COCc1cn(Cc2cc(F)c(F)c(F)c2)c(Nc2ccc(OC(F)F)cc2C)nc1=O [Compound I-1124] | 10 to 100 |
| COCc1cn(Cc2cc(F)c(F)c(F)c2)c(Nc2cc(OCCO)ccc2C)nc1=O [Compound I-1125] | 10 to 100 |
| COCc1cn(Cc2cc(F)c(F)c(F)c2)c(Nc2cc3c(cc2C)COC3)nc1=O [Compound I-1126] | 10 to 100 |
| Cc1cc2c(cc1Nc1nc(=O)c(CCO)cn1Cc1cc(F)c(F)c(F)c1)COC2 [Compound I-1127] | 10 to 100 |
| COc1ccc(C)c(Nc2nc(=O)c(C(=O)O)cn2Cc2cc(F)c(F)c(F)c2)c1 [Compound I-1128] | 10 to 100 |
| COCc1cn(Cc2cc(F)c(F)c(F)c2)c(Nc2cc(-c3ncco3)ccc2C)nc1=O [Compound I-1129] | 10 to 100 |
| Cc1cc2c(cc1Nc1nc(=O)c(C#N)cn1Cc1cc(F)c(F)c(F)c1)COC2 [Compound I-1130] | 10 to 100 |
| COCc1cn(Cc2cc(F)c(F)c(F)c2)c(Nc2cc(-c3nnco3)ccc2C)nc1=O [Compound I-1131] | 10 to 100 |
